# Test results reported in ChEMBL document CHEMBL5154936, “Scaffold Hopping Strategy to Identify Prostanoid EP4 Receptor Antagonists for Cancer Immunotherapy” (J Med Chem, 2022).
# Columns and labels:
# [1] = target: Prostaglandin E2 receptor EP4 subtype (Homo sapiens, UniProt P35408); test: Antagonist activity at human EP4 receptor transfected in CHO/Galpha16 cells preincubated for 15 mins followed by PGE2 addition by calcium flux assay; assay type: functional, cell-based
# [2] = Metabolic stability in human liver microsomes assessed as half life; assay type: ADME, Microsome
# [3] = Metabolic stability in mouse liver microsomes assessed as half life; assay type: ADME, Microsome
# [4] = Metabolic stability in human liver microsomes assessed as parent compound remaining at 10 uM measured after 60 mins; assay type: ADME, Microsome; conditions: read-out: Stability
# [5] = Metabolic stability in mouse liver microsomes assessed as intrinsic clearance; assay type: ADME, Microsome; conditions: read-out: CLH
# [6] = target: Prostaglandin E2 receptor EP4 subtype (Mus musculus, UniProt P32240); test: Antagonist activity at mouse EP4 receptor transfected in CHO/Galpha16 cells preincubated for 15 mins followed by PGE2 addition by calcium flux assay; assay type: functional, cell-based
# [7] = target: Prostaglandin E2 receptor EP2 subtype (Homo sapiens, UniProt P43116); test: Antagonist activity at human EP2 receptor transfected in CHO/Galpha16 cells preincubated for 15 mins followed by PGE2 addition by calcium flux assay; assay type: functional, cell-based
# [8] = target: T1, Prostaglandin E2 receptor EP3 subtype (Homo sapiens, UniProt P43115); test: Antagonist activity at human EP3 receptor transfected in CHO/Galpha16 cells preincubated for 15 mins followed by PGE2 addition by calcium flux assay; assay type: functional, cell-based
# T1 sequence (P43115 whole entry): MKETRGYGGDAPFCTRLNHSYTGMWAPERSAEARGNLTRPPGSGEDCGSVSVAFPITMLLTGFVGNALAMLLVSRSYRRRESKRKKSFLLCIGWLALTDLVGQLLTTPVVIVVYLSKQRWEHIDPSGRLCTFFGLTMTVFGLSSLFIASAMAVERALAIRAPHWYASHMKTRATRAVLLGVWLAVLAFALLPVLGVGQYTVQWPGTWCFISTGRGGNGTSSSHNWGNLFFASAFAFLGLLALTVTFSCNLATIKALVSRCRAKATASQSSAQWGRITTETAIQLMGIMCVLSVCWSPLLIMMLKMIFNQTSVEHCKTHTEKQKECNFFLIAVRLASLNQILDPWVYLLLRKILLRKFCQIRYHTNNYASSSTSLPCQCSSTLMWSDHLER
# [9] = Metabolic stability in mouse liver microsomes assessed as parent compound remaining at 10 uM measured after 60 mins; assay type: ADME, Microsome; conditions: read-out: Stability
# [10] = target: T2, Prostaglandin E2 receptor EP1 subtype (Homo sapiens, UniProt P34995); test: Antagonist activity at human EP1 receptor transfected in CHO/Galpha16 cells preincubated for 15 mins followed by PGE2 addition by calcium flux assay; assay type: functional, cell-based
# T2 sequence (P34995 whole entry): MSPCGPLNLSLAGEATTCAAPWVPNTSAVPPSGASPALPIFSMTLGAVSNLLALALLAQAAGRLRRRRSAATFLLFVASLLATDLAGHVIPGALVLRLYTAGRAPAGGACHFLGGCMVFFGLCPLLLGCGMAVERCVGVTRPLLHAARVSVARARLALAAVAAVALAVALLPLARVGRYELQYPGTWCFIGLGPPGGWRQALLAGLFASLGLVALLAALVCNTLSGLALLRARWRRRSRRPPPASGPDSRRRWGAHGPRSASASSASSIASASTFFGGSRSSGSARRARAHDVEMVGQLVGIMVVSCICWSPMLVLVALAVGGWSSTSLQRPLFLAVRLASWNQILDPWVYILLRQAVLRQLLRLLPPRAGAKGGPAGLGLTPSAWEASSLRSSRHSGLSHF
# [11] = Metabolic stability in human liver microsomes assessed as intrinsic clearance; assay type: ADME, Microsome; conditions: read-out: CLH
# Panc02 = test: Cytotoxicity against mouse Panc02 cells assessed as reduction in cell viability incubated for 72 hrs by CCK-8 assay; conditions: Panc02, 72 h
# CYP2C9 = CYP2C9 (Homo sapiens, UniProt P11712); test: Inhibition of CYP2C9 (unknown origin) at 20 uM; assay type: ADME
# 3LL cell line = test: Cytotoxicity against mouse 3LL cells assessed as reduction in cell viability incubated for 72 hrs by CCK-8 assay
# CT26 = test: Cytotoxicity against mouse CT26 cells assessed as reduction in cell viability incubated for 72 hrs by CCK-8 assay; conditions: CT26, 72 h
# [12] = Cytotoxicity against HEK293 cells assessed as reduction in cell viability incubated for 72 hrs by CCK-8 assay; assay type: toxicity, cell-based; conditions: human
# EMT6 = test: Cytotoxicity against mouse EMT6 cells assessed as reduction in cell viability incubated for 72 hrs by CCK-8 assay; conditions: EMT6, 72 h
# CYP2E1 = CYP2E1 (Homo sapiens, UniProt P05181); test: Inhibition of CYP2E1 (unknown origin) at 20 uM; assay type: ADME
# CYP2B6 = target: T3, CYP2B6 (Homo sapiens, UniProt P20813); test: Inhibition of CYP2B6 (unknown origin) at 20 uM; assay type: ADME
# T3 sequence (P20813 whole entry): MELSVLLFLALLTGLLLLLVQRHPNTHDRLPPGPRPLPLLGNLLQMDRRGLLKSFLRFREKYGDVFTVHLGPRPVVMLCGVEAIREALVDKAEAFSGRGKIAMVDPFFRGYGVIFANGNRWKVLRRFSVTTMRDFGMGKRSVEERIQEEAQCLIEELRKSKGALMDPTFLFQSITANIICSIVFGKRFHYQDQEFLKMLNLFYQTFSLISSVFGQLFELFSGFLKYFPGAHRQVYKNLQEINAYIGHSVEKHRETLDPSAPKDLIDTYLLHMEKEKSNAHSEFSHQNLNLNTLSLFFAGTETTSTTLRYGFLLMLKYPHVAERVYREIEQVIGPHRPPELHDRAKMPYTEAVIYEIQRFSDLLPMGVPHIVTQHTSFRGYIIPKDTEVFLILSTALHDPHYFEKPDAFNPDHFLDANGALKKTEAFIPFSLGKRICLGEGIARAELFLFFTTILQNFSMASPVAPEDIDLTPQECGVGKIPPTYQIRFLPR
# CYP1A2 = target: T4, CYP1A2 (Homo sapiens, UniProt P05177); test: Inhibition of CYP1A2 (unknown origin) at 20 uM; assay type: ADME
# T4 sequence (P05177 whole entry): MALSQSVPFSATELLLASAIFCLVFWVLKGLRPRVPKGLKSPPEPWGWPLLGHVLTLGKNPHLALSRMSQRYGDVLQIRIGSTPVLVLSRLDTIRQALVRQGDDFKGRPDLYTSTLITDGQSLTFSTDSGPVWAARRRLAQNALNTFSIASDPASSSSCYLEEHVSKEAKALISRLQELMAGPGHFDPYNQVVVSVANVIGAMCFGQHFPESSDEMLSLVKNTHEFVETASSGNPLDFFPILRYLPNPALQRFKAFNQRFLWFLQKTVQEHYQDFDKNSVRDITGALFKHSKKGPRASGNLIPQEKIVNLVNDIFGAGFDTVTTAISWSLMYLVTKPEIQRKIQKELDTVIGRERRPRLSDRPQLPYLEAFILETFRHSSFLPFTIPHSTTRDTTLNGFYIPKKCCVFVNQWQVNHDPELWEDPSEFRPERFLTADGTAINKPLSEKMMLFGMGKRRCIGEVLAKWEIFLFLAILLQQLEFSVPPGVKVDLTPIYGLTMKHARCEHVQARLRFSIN
# CYP2D6 = CYP2D6 (Homo sapiens, UniProt P10635); test: Inhibition of CYP2D6 (unknown origin) at 20 uM; assay type: ADME
# Chain of CYP2D6 (P10635 whole entry): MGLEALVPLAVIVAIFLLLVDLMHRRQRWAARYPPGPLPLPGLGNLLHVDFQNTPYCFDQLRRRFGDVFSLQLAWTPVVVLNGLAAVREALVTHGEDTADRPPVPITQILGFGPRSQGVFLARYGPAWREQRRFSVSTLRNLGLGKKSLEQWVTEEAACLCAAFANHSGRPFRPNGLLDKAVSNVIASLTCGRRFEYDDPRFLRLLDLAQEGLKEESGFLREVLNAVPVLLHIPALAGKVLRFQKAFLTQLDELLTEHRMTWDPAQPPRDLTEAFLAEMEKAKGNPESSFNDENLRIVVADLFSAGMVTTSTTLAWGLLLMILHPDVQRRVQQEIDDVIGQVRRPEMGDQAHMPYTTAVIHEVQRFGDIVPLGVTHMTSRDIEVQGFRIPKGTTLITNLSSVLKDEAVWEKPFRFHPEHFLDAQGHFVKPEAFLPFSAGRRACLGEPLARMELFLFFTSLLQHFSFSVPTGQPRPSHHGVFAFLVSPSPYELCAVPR
# Chain of Prostaglandin E2 receptor EP2 subtype (P43116 whole entry): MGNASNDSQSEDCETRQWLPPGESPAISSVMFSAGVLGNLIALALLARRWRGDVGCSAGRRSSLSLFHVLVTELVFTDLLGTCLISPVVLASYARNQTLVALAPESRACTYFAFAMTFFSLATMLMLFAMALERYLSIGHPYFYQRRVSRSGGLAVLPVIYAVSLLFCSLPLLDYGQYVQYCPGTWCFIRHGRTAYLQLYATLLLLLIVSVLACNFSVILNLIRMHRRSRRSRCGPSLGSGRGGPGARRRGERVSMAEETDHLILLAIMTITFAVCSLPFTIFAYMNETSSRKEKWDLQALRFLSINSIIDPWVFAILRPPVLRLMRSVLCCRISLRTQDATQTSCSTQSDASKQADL
# Chain of Prostaglandin E2 receptor EP4 subtype (Mus musculus, UniProt P32240) (P32240 whole entry): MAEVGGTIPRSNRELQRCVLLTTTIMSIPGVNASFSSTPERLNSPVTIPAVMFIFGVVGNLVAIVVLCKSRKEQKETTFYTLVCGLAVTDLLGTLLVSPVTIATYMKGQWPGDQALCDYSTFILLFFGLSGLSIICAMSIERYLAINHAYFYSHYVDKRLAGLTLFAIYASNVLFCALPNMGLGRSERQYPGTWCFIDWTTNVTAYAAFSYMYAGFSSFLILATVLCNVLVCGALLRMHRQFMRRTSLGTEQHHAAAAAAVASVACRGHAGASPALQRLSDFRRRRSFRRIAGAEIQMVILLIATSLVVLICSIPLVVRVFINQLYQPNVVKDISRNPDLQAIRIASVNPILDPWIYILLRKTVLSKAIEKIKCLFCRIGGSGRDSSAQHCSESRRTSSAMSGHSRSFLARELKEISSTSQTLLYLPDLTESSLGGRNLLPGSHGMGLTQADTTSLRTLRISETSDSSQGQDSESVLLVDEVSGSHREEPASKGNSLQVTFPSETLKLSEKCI
# Chain of Prostaglandin E2 receptor EP4 subtype (Homo sapiens, UniProt P35408) (P35408 whole entry): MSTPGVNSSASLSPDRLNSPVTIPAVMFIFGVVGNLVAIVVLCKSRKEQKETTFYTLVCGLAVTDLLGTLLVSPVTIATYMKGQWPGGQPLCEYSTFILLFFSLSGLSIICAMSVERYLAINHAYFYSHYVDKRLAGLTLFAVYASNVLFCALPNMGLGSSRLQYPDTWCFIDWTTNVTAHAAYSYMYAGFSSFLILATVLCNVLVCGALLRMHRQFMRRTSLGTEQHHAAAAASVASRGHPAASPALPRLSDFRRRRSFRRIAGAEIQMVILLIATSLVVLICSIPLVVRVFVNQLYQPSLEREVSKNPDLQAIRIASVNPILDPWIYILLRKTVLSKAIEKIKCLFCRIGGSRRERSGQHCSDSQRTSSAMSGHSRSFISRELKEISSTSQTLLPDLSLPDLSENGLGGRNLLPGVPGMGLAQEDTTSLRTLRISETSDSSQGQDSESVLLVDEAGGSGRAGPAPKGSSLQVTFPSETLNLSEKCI
# Chain of CYP2C9 (P11712 whole entry): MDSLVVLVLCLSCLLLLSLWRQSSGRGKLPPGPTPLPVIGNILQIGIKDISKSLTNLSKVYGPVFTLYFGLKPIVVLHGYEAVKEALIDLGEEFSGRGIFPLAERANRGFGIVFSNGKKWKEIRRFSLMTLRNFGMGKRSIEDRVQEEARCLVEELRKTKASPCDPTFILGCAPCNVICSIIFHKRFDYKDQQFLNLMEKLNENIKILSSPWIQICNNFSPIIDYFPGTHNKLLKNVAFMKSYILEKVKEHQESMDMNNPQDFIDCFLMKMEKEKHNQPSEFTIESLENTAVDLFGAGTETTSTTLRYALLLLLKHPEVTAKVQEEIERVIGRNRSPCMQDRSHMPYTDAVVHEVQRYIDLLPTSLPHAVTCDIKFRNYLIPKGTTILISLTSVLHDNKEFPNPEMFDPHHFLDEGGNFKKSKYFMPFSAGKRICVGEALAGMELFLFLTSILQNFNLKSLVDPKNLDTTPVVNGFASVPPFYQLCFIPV
# Chain of CYP2E1 (P05181 whole entry): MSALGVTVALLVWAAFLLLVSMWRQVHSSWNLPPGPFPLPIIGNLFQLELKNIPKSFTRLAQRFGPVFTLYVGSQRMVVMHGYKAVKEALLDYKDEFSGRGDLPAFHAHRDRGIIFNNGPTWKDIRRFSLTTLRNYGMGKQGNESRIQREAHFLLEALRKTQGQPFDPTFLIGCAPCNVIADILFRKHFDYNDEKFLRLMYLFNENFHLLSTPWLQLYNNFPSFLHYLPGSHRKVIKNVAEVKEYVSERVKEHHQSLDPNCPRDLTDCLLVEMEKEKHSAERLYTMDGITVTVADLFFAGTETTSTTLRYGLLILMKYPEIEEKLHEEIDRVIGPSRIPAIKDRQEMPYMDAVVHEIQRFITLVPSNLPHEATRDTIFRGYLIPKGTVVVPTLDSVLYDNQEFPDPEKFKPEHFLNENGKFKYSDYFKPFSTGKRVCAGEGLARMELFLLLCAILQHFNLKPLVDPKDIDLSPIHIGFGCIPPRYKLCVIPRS
compound,measurement,setting,value
COc1cccc(C#Cc2sc3c(c2C(=O)N[C@@H](C)c2ccc(C(=O)O)cc2)CCOC3)c1,IC50,[1],12.4 nM
C[C@H](NC(=O)c1c(Cc2ccc(OC(F)(F)F)c(Cl)c2)sc2c1CCOC2)c1ccc(C(=O)O)cc1,IC50,[1],6.6 nM
COc1ccc2cc(C#Cc3sc4c(c3C(=O)N[C@@H](C)c3ccc(C(=O)O)cc3)CCOC4)ccc2c1,IC50,[1],27.2 nM
CC(=O)N1CCc2c(sc(CCc3ccc(F)cc3)c2C(=O)N[C@@H](C)c2ccc(C(=O)O)cc2)C1,IC50,[1],> 1000 nM
CON(C)C(=O)c1ccc([C@H](C)NC(=O)c2c(Cc3ccc(F)cc3)sc3c2CCOC3)cc1,IC50,[1],187 nM
COC(=O)c1ccc([C@H](C)NC(=O)c2c(Cc3ccc(F)cc3)sc3c2CCOC3)cc1,IC50,[1],> 1000 nM
C[C@H](NC(=O)c1c(CCc2ccc(F)cc2)sc2c1CCC2)c1ccc(C(=O)O)cc1,half-life,[2],6.3 min
same,half-life,[3],16.1 min
same,"remaining at 1 h, 10 µM",[4],12.2%
same,microsomal CLint,[5],86.1 µL/min/mg
same,IC50,[6],19.8 nM
same,IC50,[7],> 10000 nM
same,IC50,[8],> 10000 nM
same,"remaining at 1 h, 10 µM",[9],6.8%
same,IC50,[10],> 10000 nM
same,microsomal CLint,[11],221 µL/min/mg
C[C@H](NC(=O)c1c(Cc2ccc(F)cc2)sc2c1CCOC2)c1ccc(C(=O)NN)cc1,IC50,[1],74.9 nM
O=C(O)c1ccc(C2(NC(=O)c3c(Cc4cccc(C(F)(F)F)c4)sc4c3CCOC4)CC2)cc1,IC50,[1],1 nM
CC(C)c1ccc(Cc2sc3c(c2C(=O)N[C@@H](C)c2ccc(C(=O)O)cc2)CCOC3)cc1,IC50,[1],2.7 nM
C[C@H](NC(=O)c1c(CCc2ccc(F)cc2)sc2c1CC(C)(C)OC2)c1ccc(C(=O)O)cc1,IC50,[1],36.2 nM
C[C@H](NC(=O)c1c(CCc2ccc(F)cc2)sc2c1CCOC2)c1ccc(C(=O)O)cc1,half-life,[2],48.6 min
same,IC50,Panc02,> 100000 nM
same,inhibition at 20 µM,CYP2C9,58%
same,half-life,[3],> 145 min
same,"remaining at 1 h, 10 µM",[4],40.7%
same,IC50,3LL cell line,> 100000 nM
same,IC50,CT26,> 100000 nM
same,IC50 at 72 h,[12],> 100000 nM
same,microsomal CLint,[5],< 9.6 µL/min/mg
same,IC50,EMT6,> 100000 nM
same,inhibition at 20 µM,CYP2E1,39%
same,inhibition at 20 µM,CYP2B6,76%
same,inhibition at 20 µM,CYP1A2,88%
same,inhibition at 20 µM,CYP2D6,76%
same,IC50,[6],50.1 nM
same,IC50,[1],19.1 nM
same,IC50,[7],> 10000 nM
same,IC50,[8],> 10000 nM
same,"remaining at 1 h, 10 µM",[9],75.7%
same,IC50,[10],> 10000 nM
same,microsomal CLint,[11],28.5 µL/min/mg
O=C(NCC1CCC(C(=O)O)CC1)c1c(Cc2ccc(F)cc2)sc2c1CCOC2 (centres undefined),IC50,[1],30.3 nM
C[C@H](NC(=O)c1c(Cc2cccc(F)c2)sc2c1CCOC2)c1ccc(C(=O)O)cc1,IC50,[1],5.1 nM
CCC1CCc2c(sc(CCc3ccc(F)cc3)c2C(=O)N[C@@H](C)c2ccc(C(=O)O)cc2)C1 (some centres undefined),IC50,[1],648 nM
C[C@H](NC(=O)c1c(CCc2ccc(F)cc2)sc2c1CCN(C(=O)OC(C)(C)C)C2)c1ccc(C(=O)O)cc1,IC50,[1],315 nM
C[C@H](NC(=O)c1c(C#Cc2ccc(=O)[nH]c2)sc2c1CCOC2)c1ccc(C(=O)O)cc1,IC50,[1],642 nM
C[C@H](NC(=O)c1c(NCc2ccc(C(F)(F)F)cc2)sc2c1CCOC2)c1ccc(C(=O)O)cc1,IC50,[6],66.7 nM
same,IC50,[1],32.9 nM
same,IC50,[7],> 10000 nM
same,IC50,[8],> 10000 nM
same,IC50,[10],> 10000 nM
C[C@H](NC(=O)c1c(/N=C/c2cccc(C(F)(F)F)c2)sc2c1CCOC2)c1ccc(C(=O)O)cc1,IC50,[1],> 1000 nM
C[C@H](NC(=O)c1c(Cc2ccc(C(C)(C)C)cc2)sc2c1CCOC2)c1ccc(C(=O)O)cc1,IC50,[1],9.5 nM
COc1cccc(Cc2sc3c(c2C(=O)N[C@@H](C)c2ccc(C(=O)O)cc2)CCOC3)c1,IC50,[1],1.9 nM
C[C@H](NC(=O)c1c(CCc2ccc(F)cc2)sc2c1CCCC2)c1ccc(C(=O)O)cc1,half-life,[2],14 min
same,"remaining at 1 h, 10 µM",[4],5%
same,IC50,[6],29 nM
same,IC50,[1],27.8 nM
same,microsomal CLint,[11],97.6 µL/min/mg
COc1ccc(Cc2sc3c(c2C(=O)N[C@@H](C)c2ccc(C(=O)O)cc2)CCOC3)cc1,IC50,[1],2.1 nM
same,IC50,[7],> 10000 nM
same,IC50,[8],> 10000 nM
same,IC50,[10],> 10000 nM
C[C@H](NC(=O)c1c(Cc2cccc(Cl)c2)sc2c1CCOC2)c1ccc(C(=O)O)cc1,IC50,[1],3.2 nM
O=C(O)c1cccc(CNC(=O)c2c(Cc3cccc(C(F)(F)F)c3)sc3c2CCOC3)c1,IC50,[1],> 1000 nM
COc1ccc(Cc2sc3c(c2C(=O)N[C@@H](C)c2ccc(C(=O)O)cc2)CCOC3)cc1F,IC50,[7],> 10000 nM
same,IC50,[8],> 10000 nM
same,IC50,[10],> 10000 nM
C[C@H](NC(=O)c1c(NC(=O)c2ccc(F)cc2)sc2c1CCOC2)c1ccc(C(=O)O)cc1,IC50,[1],> 1000 nM
